# From patent US4751217A, “Physiologically active substances named SEN-366” (Nippon Shinyaku Co., Ltd., priority 1984, dated 1988)
# “Also recorded” adds a separate entry of the source.
# What was measured:
# [1] = test system: platelet aggregation (collagen); assay: Inhibitory action against platelet aggregation, inducer collagen; format: cell-based; conditions: for IC50: Oryctolagus cuniculus, Platelet, collagen 10 μg/ml, rabbit PRP
# Description: (§1) Inhibitory Action against Platelet Aggregation:
# (§2) (1) Materials and Method:
# (§3) The sample is tested after dissolved in dimethyl sulfoxide. The preparation is conducted so as to make the final concentration of the solvent 1%. Dimethyl sulfoxide of the same concentration is used as a control. As to inducers for platelet aggregation, ADP (final concentration: 5 μm), AA (arachidonic acid) (final concentration: 150 μM) and collagen (final concentration: 10 μg/ml) are used.
# (§4) (2) Preparation of platelet:
# Blood is taken from total neck artery of male rabbits of 2.0-2.5 kg body weight. […] The precipitate is further centrifuged at 1600×g for 10 minutes and the resulting supernatant liquid is used as plasma with poor platelet (hereinafter abbreviated as PPP).
# (§5) (3) Method for Measuring Aggregation Power:
# (§6) A measuring apparatus for platelet aggregation is used and the changes in absorbancy by the aggregation with an elapse of time are recorded.
# (§7) Thus, 200 microliters of PRP is taken, its difference between PPP is adjusted to a certain value, then 25 microliters of control solution or test solution is added, the mixture is stirred (1000 rpm) for 1 minutes, 25 microliters of aggregation inducer is added, and the changes in absorbancy are recorded. The inhibitory ratio is calculated from the following expression from the maximum aggregation ratio of the control (A in %) and that of the test solution (B in %): [formula]
# (§8) The sample is tested after dissolved in dimethyl sulfoxide. The preparation is conducted so as to make the final concentration of the solvent 1%. Dimethyl sulfoxide of the same concentration is used as a control. As to inducers for platelet aggregation, ADP (final concentration: 5 μM), AA (arachidonic acid) (final concentration: 150 μM) and collagen (final concentration: 10 μg/ml) are used.
# (§9) Blood is taken from total neck artery of male rabbits of 2.0-2.5 kg body weight. To the blood is added 1/10 volume of 3.8% citric acid solution, the mixture is gently stirred, centrifuged 1300×g for 2 minutes, and the resulting supernatant liquid is used as plasma with abundant platelet (hereinafter abbreviated as PRP). The precipitate is further centrifuged at 1600×g for 10 minutes and the resulting supernatant liquid is used as plasma with poor platelet (hereinafter abbreviated as PPP).
# (§10) Thus, 200 microliters of PRP is taken, its difference between PPP is adjusted to a certain value, then 25 microliters of control solution or test solution is added, the mixture is stirred (1000 rpm) for 1 minute, 25 microliters of aggregation inducer is added, and the changes in absorbancy are recorded. The inhibitory ratio is calculated from the following expression from the maximum aggregation ratio of the control (A in %) and that of the test solution (B in %): [formula]
# [2] = test system: platelet aggregation (ADP); assay: Inhibitory action against platelet aggregation, inducer ADP; format: cell-based; conditions: for IC50: Oryctolagus cuniculus, Platelet, ADP 5 μM, rabbit PRP
# Description: as §1, §2, §3, §4
# (§11) Blood is taken from total neck artery of male rabbits of 2.0-2.5 kg body weight. To the blood is added 1/10 volume of 3.8% sodium citrate solution, the mixture is gently stirred, centrifuged 1300×g for 2 minutes, and the resulting supernatant liquid is used as plasma with abundant platelet (hereinafter abbreviated as PRP). The precipitate is further centrifuged at 1600×g for 10 minutes and the resulting supernatant liquid is used as plasma with poor platelet (hereinafter abbreviated as PPP).
# as §5, §6, §7
# (§12) Inhibitory ratios with varied test solution concentrations are calculated and the IC50 (50% inhibitory concentration) is calculated therefrom.
# as §8, §9, §10
# [3] = test system: platelet aggregation (AA); assay: Inhibitory action against platelet aggregation, inducer arachidonic acid (AA); format: cell-based; conditions: for IC50: Oryctolagus cuniculus, Platelet, AA 150 μM, rabbit PRP
# Description: as §1, §2, §3, §4, §11, §5, §6, §7, §12, §8, §9, §10
# Solubility = format: physicochemical; conditions: qualitative, in named solvents
# [4] = Table 1, rabbit PRP, listed as A3
# [5] = Table 1, rabbit PRP, listed as A4
# [6] = Table 1, rabbit PRP, listed as B3
# [7] = Table 1, rabbit PRP, listed as B4
# [8] = Table 1, rabbit PRP, listed as BT1
# [9] = Table 1, rabbit PRP, listed as BT2
# [10] = Table 1, rabbit PRP, listed as BT3
# [11] = Table 1, rabbit PRP, listed as BT4
# [12] = Table 2, rabbit PRP, listed as CB3
# [13] = Table 2, rabbit PRP, listed as CB4
# [14] = Table 2, rabbit PRP, listed as E3
# [15] = Table 2, rabbit PRP, listed as E4
# [16] = Table 2, rabbit PRP, listed as M3
# [17] = Table 2, rabbit PRP, listed as M4
compound,measurement,setting,value
CC(=O)OC1CCC(OC2CCC(OC3C=CC(=O)C(C)O3)C(C)O2)C(C)O1 (stereo not shown) [SEN-366-A1],IC50 Collagen 10 μg/ml,"[1]; Table 1, rabbit PRP, listed as A1",< 0.1 µg/mL
same,IC50,[2]; Table 1,0.22 µg/mL
same,IC50,[3]; Table 1,1.2 µg/mL
CC(=O)OC1CCC(OC2CCC(OC3CCC(=O)C(C)O3)C(C)O2)C(C)O1 (stereo not shown) [SEN-366-A2],IC50,[1]; Table 1,0.54 µg/mL
same,IC50 ADP 5 μM,"[2]; Table 1, rabbit PRP, listed as A2",1.6 µg/mL
same,IC50,[3]; Table 1,6 µg/mL
CC(=O)OC1CCC(OC2CCC(OC3C=CC(=O)C(C)O3)C(C)O2)C(C)O1 (stereo not shown) [SEN-366-A3],IC50 Collagen 10 μg/ml,[1]; [4],0.47 µg/mL
same,IC50 ADP 5 μM,[2]; [4],0.44 µg/mL
same,IC50 AA 150 μM,[3]; [4],1.6 µg/mL
CC(=O)OC1CCC(OC2CCC(OC3CCC(=O)C(C)O3)C(C)O2)C(C)O1 (stereo not shown) [SEN-366-A4],IC50 Collagen 10 μg/ml,[1]; [5],0.27 µg/mL
same,IC50 ADP 5 μM,[2]; [5],> 10 µg/mL
same,IC50 AA 150 μM,[3]; [5],5.4 µg/mL
CC1OC(OC2CCC(OC3CCC(OC(=O)c4ccccc4)OC3C)OC2C)C=CC1=O (stereo not shown) [SEN-366-B1],IC50,[1]; Table 1,0.16 µg/mL
same,IC50,[2]; Table 1,1.1 µg/mL
same,IC50,[3]; Table 1,0.32 µg/mL
CC1OC(OC2CCC(OC3CCC(OC(=O)c4ccccc4)OC3C)OC2C)CCC1=O (stereo not shown) [SEN-366-B2],IC50,[1]; Table 1,1.7 µg/mL
same,IC50,[2]; Table 1,5.7 µg/mL
same,IC50,[3]; Table 1,1.6 µg/mL
CC1OC(OC2CCC(OC3CCC(OC(=O)c4ccccc4)OC3C)OC2C)C=CC1=O (stereo not shown) [SEN-366-B3],IC50 Collagen 10 μg/ml,[1]; [6],0.17 µg/mL
same,IC50 ADP 5 μM,[2]; [6],1.0 µg/mL
same,IC50 AA 150 μM,[3]; [6],0.55 µg/mL
CC1OC(OC2CCC(OC3CCC(OC(=O)c4ccccc4)OC3C)OC2C)CCC1=O (stereo not shown) [SEN-366-B4],IC50 Collagen 10 μg/ml,[1]; [7],2.9 µg/mL
same,IC50 ADP 5 μM,[2]; [7],6.5 µg/mL
same,IC50 AA 150 μM,[3]; [7],1.2 µg/mL
CCCC(=O)OC1CCC(OC2CCC(OC3C=CC(=O)C(C)O3)C(C)O2)C(C)O1 (stereo not shown) [SEN-366-BT1],IC50,[1]; Table 1,0.17 µg/mL
same,IC50 ADP 5 μM,[2]; [8],1.1 µg/mL
same,IC50 AA 150 μM,[3]; [8],1.55 µg/mL
CCCC(=O)OC1CCC(OC2CCC(OC3CCC(=O)C(C)O3)C(C)O2)C(C)O1 (stereo not shown) [SEN-366-BT2],IC50 Collagen 10 μg/ml,[1]; [9],0.53 µg/mL
same,IC50 ADP 5 μM,[2]; [9],1.35 µg/mL
same,IC50 AA 150 μM,[3]; [9],2.1 µg/mL
CCCC(=O)OC1CCC(OC2CCC(OC3C=CC(=O)C(C)O3)C(C)O2)C(C)O1 (stereo not shown) [SEN-366-BT3],IC50 Collagen 10 μg/ml,[1]; [10],0.16 µg/mL
same,IC50 ADP 5 μM,[2]; [10],0.47 µg/mL
same,IC50 AA 150 μM,[3]; [10],0.64 µg/mL
CCCC(=O)OC1CCC(OC2CCC(OC3CCC(=O)C(C)O3)C(C)O2)C(C)O1 (stereo not shown) [SEN-366-BT4],IC50 Collagen 10 μg/ml,[1]; [11],1.6 µg/mL
same,IC50 ADP 5 μM,[2]; [11],5.3 µg/mL
same,IC50 AA 150 μM,[3]; [11],5.7 µg/mL
CC1OC(OC2CCC(OC3CCC(OC(=O)c4ccc(Cl)cc4)OC3C)OC2C)C=CC1=O (stereo not shown) [SEN-366-CB1],IC50,[1]; Table 2,0.06 µg/mL
same,IC50,[2]; Table 2,0.3 µg/mL
same,IC50,[3]; Table 2,1.1 µg/mL
CC1OC(OC2CCC(OC3CCC(OC(=O)c4ccc(Cl)cc4)OC3C)OC2C)CCC1=O (stereo not shown) [SEN-366-CB2],IC50,[1]; Table 2,1 µg/mL
same,IC50,[2]; Table 2,3.2 µg/mL
same,IC50,[3]; Table 2,6.2 µg/mL
CC1OC(OC2CCC(OC3CCC(OC(=O)c4ccc(Cl)cc4)OC3C)OC2C)C=CC1=O (stereo not shown) [SEN-366-CB3],IC50 Collagen 10 μg/ml,[1]; [12],0.053 µg/mL
same,IC50 ADP 5 μM,[2]; [12],0.29 µg/mL
same,IC50 AA 150 μM,[3]; [12],0.68 µg/mL
CC1OC(OC2CCC(OC3CCC(OC(=O)c4ccc(Cl)cc4)OC3C)OC2C)CCC1=O (stereo not shown) [SEN-366-CB4],IC50 Collagen 10 μg/ml,[1]; [13],1.7 µg/mL
same,IC50 ADP 5 μM,[2]; [13],4.2 µg/mL
same,IC50 AA 150 μM,[3]; [13],> 5 µg/mL
CCOC1CCC(OC2CCC(OC3C=CC(=O)C(C)O3)C(C)O2)C(C)O1 (stereo not shown) [SEN-366-E1],IC50 Collagen 10 μg/ml,"[1]; Table 2, rabbit PRP, listed as E1",2.0 µg/mL
same,IC50,[2]; Table 2,7.2 µg/mL
same,IC50,[3]; Table 2,10.3 µg/mL
CCOC1CCC(OC2CCC(OC3CCC(=O)C(C)O3)C(C)O2)C(C)O1 (stereo not shown) [SEN-366-E2],IC50,[1]; Table 2,22.1 µg/mL
same,IC50,[2]; Table 2,> 100 µg/mL
same,IC50,[3]; Table 2,52 µg/mL
CCOC1CCC(OC2CCC(OC3C=CC(=O)C(C)O3)C(C)O2)C(C)O1 (stereo not shown) [SEN-366-E3],IC50 Collagen 10 μg/ml,[1]; [14],4.4 µg/mL
same,IC50 ADP 5 μM,[2]; [14],12.4 µg/mL
same,IC50 AA 150 μM,[3]; [14],14.0 µg/mL
CCOC1CCC(OC2CCC(OC3CCC(=O)C(C)O3)C(C)O2)C(C)O1 (stereo not shown) [SEN-366-E4],IC50 Collagen 10 μg/ml,[1]; [15],16.5 µg/mL
same,IC50 ADP 5 μM,"[2]; Table 2, rabbit PRP",> 100 µg/mL
same,IC50 AA 150 μM,[3]; [15],65.0 µg/mL
CC1OC(OC2CCC(O)OC2C)C=CC1=O (stereo not shown) [SEN-366-F0],IC50,[1]; Table 3,1.5 µg/mL
same,IC50,[2]; Table 3,9.3 µg/mL
same,IC50,[3]; Table 3,3.4 µg/mL
CC1OC(OC2CCC(OC3CCC(=O)OC3C)OC2C)C=CC1=O (stereo not shown) [SEN-366-L1],IC50,[1]; Table 2,5 µg/mL
same,IC50,[2]; Table 2,12 µg/mL
same,IC50,[3]; Table 2,27 µg/mL
COC1CCC(OC2CCC(OC3C=CC(=O)C(C)O3)C(C)O2)C(C)O1 (stereo not shown) [SEN-366-M1],IC50,[1]; Table 2,5.5 µg/mL
same,IC50,[2]; Table 2,17 µg/mL
same,IC50,[3]; Table 2,29 µg/mL
COC1CCC(OC2CCC(OC3CCC(=O)C(C)O3)C(C)O2)C(C)O1 (stereo not shown) [SEN-366-M2],IC50,[1]; Table 2,16.3 µg/mL
same,IC50,[2]; Table 2,55 µg/mL
same,IC50,[3]; Table 2,42 µg/mL
COC1CCC(OC2CCC(OC3C=CC(=O)C(C)O3)C(C)O2)C(C)O1 (stereo not shown) [SEN-366-M3],IC50 Collagen 10 μg/ml,[1]; [16],5.2 µg/mL
same,IC50 ADP 5 μM,[2]; [16],15.0 µg/mL
same,IC50 AA 150 μM,[3]; [16],25.0 µg/mL
COC1CCC(OC2CCC(OC3CCC(=O)C(C)O3)C(C)O2)C(C)O1 (stereo not shown) [SEN-366-M4],IC50 Collagen 10 μg/ml,[1]; [17],18.0 µg/mL
same,IC50 ADP 5 μM,[2]; [17],53.0 µg/mL
same,IC50 AA 150 μM,[3]; [17],47.0 µg/mL
CC1OC(OC2CCC(OC3CCC(O)OC3C)OC2C)C(O)CC1=O (stereo not shown) [SEN-366-P],IC50,[1]; Table 1,1.6 µg/mL
same,IC50,[2]; Table 1,4.4 µg/mL
same,IC50,[3]; Table 1,25 µg/mL
same,Solubility,Solubility,"Soluble in water, methanol, ethanol, chloroform, acetone and ethyl acetate; also recorded: hardly soluble in petroleum ether and n-hexane"
